Results as given in US20050058745A1, “Use of Labiatae herb preparations for extending the flavor shelf life of malt beverages” (priority 2003, published 2005).

Test: Trained panel flavor evaluation, commercial Pilsener, forced aging
Procedure: Separate solutions containing 2% pure rosmarinic acid or pure carnosic acid were prepared by weighing out 500 mg of each compound into separate volumetric flasks and diluting to 25 mL with 100% EtOH.
The beer used in this study was purchased at a local market with a production date of 36 days prior to use. Bottle additions were done as follows: • 1. A bottle of the beer was opened, struck sharply on the top to induce foaming (called “fobbing”), and crowned. The fobbing excludes air. The bottle was swirled and inverted. This sample was designated “No Additions.” • 2. Bottles of beer were opened and an aliquot of either the rosmarinic acid or carnosic acid solutions or a combination of each was added in an amount to give the correct addition rate. The bottle was then fobbed, as above and crowned. It was then swirled and inverted. The samples were designated appropriately to reflect the additive and concentration.
The bottles were placed in a heated room at 40±1° C. in the dark for varying amounts of time. After the allotted aging time, the bottles of beer were transferred to a dark refrigerator and stored at approximately 2° to 4° C. until they were analyzed. Additional bottles from the same code were kept unopened in 2° to 4° C. storage. These unopened samples from the same beer code were labeled “Fresh Control” used to provide fresh samples for the trained panel.
At the appropriate times, a trained 7- or 8-member panel evaluated the beers. In the first study panels, the fresh sample was not identified. Members rated beers for nine attributes that are characteristic for beer: Malt, Yeast, Estery, Hops, Sweet, Stale/Oxidized, Sour/Acid, Solvent (Chemical), and Bitterness. The panel never evaluated more than four beers at a session. The ratings are shown below.

SMILES: CC(C)c1cc2c(c(O)c1O)[C@@]1(C(=O)O)CCCC(C)(C)[C@@H]1CC2 [CA, carnosic acid]
- ranking (normalized sum of preference, 1 most preferred, 4 least preferred) (5 ppm CA, 1 week 40° C.): 2.6
- ranking (normalized sum of preference, 1 most preferred, 4 least preferred) (10 ppm CA, 1 week 40° C.): 2.4
- ranking (normalized sum of preference, 1 most preferred, 4 least preferred) (20 ppm CA, 1 week 40° C.): 2.3
- ranking (normalized sum of preference, 1 most preferred, 4 least preferred) (20 ppm CA, 2 weeks 40° C.): 2.1
